We go through 11 molecules from ChEMBL document CHEMBL1821592, “Dual effects of caffeoyl-amino acidyl-hydroxamic acid as an antioxidant and depigmenting agent” (Bioorg Med Chem Lett, 2011).

Molecules are shown by their SMILES. The source made the active and inactive calls. The calls are words filed in the database; no cut-off is given here.

The target of data set [1] is T1, Tyrosinase (Agaricus bisporus) (UniProt O42713).
T1 sequence (whole entry): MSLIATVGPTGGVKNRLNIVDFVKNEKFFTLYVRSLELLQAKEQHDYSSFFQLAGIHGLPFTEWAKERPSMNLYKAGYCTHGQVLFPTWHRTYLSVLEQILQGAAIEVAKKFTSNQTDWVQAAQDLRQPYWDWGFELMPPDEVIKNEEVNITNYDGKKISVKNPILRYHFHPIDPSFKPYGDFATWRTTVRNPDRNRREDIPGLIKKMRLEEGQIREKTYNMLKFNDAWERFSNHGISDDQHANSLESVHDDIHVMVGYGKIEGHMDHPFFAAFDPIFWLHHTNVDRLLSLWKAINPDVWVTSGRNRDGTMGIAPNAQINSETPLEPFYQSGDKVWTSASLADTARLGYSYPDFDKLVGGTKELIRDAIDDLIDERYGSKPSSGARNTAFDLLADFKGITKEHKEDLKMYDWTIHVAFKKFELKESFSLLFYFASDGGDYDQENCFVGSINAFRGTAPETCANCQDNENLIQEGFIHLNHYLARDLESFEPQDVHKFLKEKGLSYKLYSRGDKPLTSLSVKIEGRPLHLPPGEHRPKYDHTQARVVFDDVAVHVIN
The experiment in a line: Inhibition of mushroom tyrosinase using L-DOPA as substrate at 50 uM after 10 mins by UV absorbance method.

The subject of data set [2] is Radical scavenging activity. Briefly: Antioxidant activity assessed as DPPH free radical scavenging activity at 1.85 mM after 10 mins relative to control. Format: functional. Background: DPPH is a stable violet radical that fades when it is reduced.
Data set [3] is described as follows: Antioxidant activity against linoleic acid lipid peroxidation at 90 uM after 48 hrs by ferric thiocyanate method. It counts as functional.
Data set [4] can be described thus: Antioxidant activity against linoleic acid lipid peroxidation at 90 uM by ferric thiocyanate method. Format: functional.
The nature of data set [5]: Cytotoxicity against mouse Mel-Ab cells up to 200 uM after 24 hrs by crystal violet staining based ELISA. Format: cell-based.
Another data set has as its system Mel-Ab. The experiment in a line: Inhibition of melanogenesis in mouse Mel-Ab cells assessed as reduction of melanin production at 100 uM after 4 days by ELISA reader. It counts as functional, cell-based.

With `O=C(/C=C/c1ccc(O)c(O)c1)NCCC(=O)NO`, the inhibition entry in data set [1] was “Active”. For the same molecule, in data set [2], the Activity was 42.2%.

For `CC(C)C[C@H](NC(=O)/C=C/c1ccc(O)c(O)c1)C(=O)NO`, in data set [1], the inhibition entry was “Active”. For the same molecule, in data set [2], the Activity amounted to 51.1%.

For `O=C(/C=C/c1ccc(O)c(O)c1)N[C@@H](Cc1ccccc1)C(=O)NO`, the Activity in data set [2] was found to be 40.9%.

For the molecule `O=C(NO)[C@@H]1CCCN1C(=O)/C=C/c1ccc(O)c(O)c1`, the inhibition result (in data set [1]; with Mel-Ab) was “Active” each time. Besides, the outcome in data set [3] and in data set [4] was Active. Also, the Activity result in data set [5] was “Non-toxic”; in data set [2], 77.2%.

Consider `O=C(/C=C/c1ccc(O)c(O)c1)N[C@H](C(=O)NO)c1ccccc1`, for which the Activity in data set [2] is 56.2%.

For `O=C(O)[C@@H]1CCCN1C(=O)/C=C/c1ccc(O)c(O)c1`, the outcome in data set [3] and in data set [4] was Active. Besides, in data set [2], the Activity was determined as 20%.

On to `O=C(/C=C/c1ccc(O)c(O)c1)N[C@H](Cc1ccccc1)C(=O)NO`, for which the Activity in data set [2] was 47.6%.

Take `O=C(/C=C/c1ccc(O)c(O)c1)NCC(=O)NO`: the inhibition result in data set [1] is “Active”. Further, the Activity in data set [2] was 39.4%.

Take `O=C(/C=C/c1ccc(O)c(O)c1)NC(Cc1ccccc1)C(=O)NO` (stereo not drawn): the inhibition result in data set [1] is “Active”.

As for `O=C(O)/C=C/c1ccc(O)c(O)c1`, in data set [1], the inhibition entry was “inactive”. The Activity in data set [2] stood at 52.4%.

As to `C[C@H](NC(=O)/C=C/c1ccc(O)c(O)c1)C(=O)NO`, the inhibition entry in data set [1] is “Active”. For the same molecule, in data set [2], the Activity worked out at 40.7%.
